# Where a name gives a salt, the structure may show the parent alone.
# Columns and labels:
# [1] = test system: NCI-H358 non-small cell lung cancer cells; experiment: Inhibition of NCI-H358 cell proliferation (CellTiter-Glo 3D, 7 days); type: cell-based; details: Homo sapiens, NCI-H358, 168 h, 3D microspheres, read-out: Inhibitory activity against NCI-H358 cell proliferation (IC50)
# Procedure: The number of viable cells were detected by CellTiter-Glo 3D® reagent, thereby evaluating the inhibitory effect of compounds on cell proliferation. NCI-H358 non-small cell lung cancer cells (Nanjing cobioer) in the exponential growth phase were digested with trypsin-EDTA, and seeded into 96-well ultra-low attachment microplates at 100 µL per well with a density of 2000 cells/well. The cells were cultured overnight at 37°C with 5% CO2 to form microspheres. The test compounds were serially diluted 5-fold with DMSO to obtain 8 concentration gradient dilutions, then diluted with RPMI-1640 (10% FBS) cell culture medium respectively to obtain compound working solutions (2×). 100 µL per well was added to the cell supernatant, and the culture was continued for 7 days under the conditions of 37°C and 5% CO2. The well plate was removed, and 100 µL of CellTiter-Glo 3D® reagent was added. After lysis at room temperature for 10-30 minutes, 70 µL of the lysate was aspirated and transferred to a white opaque 384-well plate.
# The inhibition rate was calculated by the following formula: [formula] Note: The negative control refers to the group without inhibitor, and the blank refers to the group without cells.
# The inhibitory activities of some Example compounds and comparative compounds against NCI-H358 cell proliferation are shown in Table 2. Table 2. Inhibitory activity of some Example compounds against NCI-H358 cell proliferation
# [2] = Rat liver microsomal metabolic stability; type: in vitro ADME; details: rat liver microsomes; for half-life at 1 µM: NADPH, 37°C; for CLint scaled at 1 µM: calculated from T1/2, fu defaulted to 1, read-out: CL(liver)
# Text: Metabolic stability affects the clearance rate, half-life, and oral bioavailability of compounds in the body, and is one of the most important ADME drug-like properties of compounds. Hepatocyte microsomal stability assay is a commonly used method for studying metabolic stability. In the present disclosure, rat liver microsomes are used to determine and investigate the metabolic stability of compounds.
# Preparation of compound stock solution: an appropriate amount of the test compound and testosterone was taken, and a 1 mM stock solution was prepared with DMSO, which was stored in a refrigerator at 4°C.
# Preparation of compound working solution: The 1 mM compound stock solution was taken respectively, and then diluted to 100 µM with acetonitrile-water (v:v = 1:1) to obtain the working solution.
# Preparation of NADPH working solution: an appropriate amount of NADPH was weighed and dissolved in 16 mM MgCl2 to prepare a NADPH working solution with a concentration of 4.0 mM.
# Preparation of rat liver microsome working solution: an appropriate amount of rat liver microsomes was taken and diluted with PBS to obtain a liver microsome working solution with a concentration of 1 mg/mL.
# In the incubation system, 48 µL of PBS, 100 µL of rat liver microsome working solution, and 2 µL of the test compound working solution were sequentially added and mixed well. After pre-incubation at 37°C for 5 min, 50 µL of NADPH was added to initiate the reaction. After incubation for the corresponding time points, an appropriate amount of ice-cold acetonitrile containing an internal standard was added to terminate the reaction. The mixture was vortexed to mix well, centrifuged, and the supernatant was collected. The supernatant was injected into LC-MS/MS for detection of the residual metabolic amount of the compound.
# Softwares of Excel, etc. were used for data processing according to the following formula. Ct = C0 •e^(−ke •t) [formula] when Ct = (1)/(2)C0 [formula] , T1/2 = (Ln2)/(ke) = (0.693)/(ke) [formula] CLint(mic) = (0.693)/(In vitro T1/2)•(1)/(mg/mL microsomal protein in reaction system) [formula] CLint(liver) = CLint(mic) •(mg microsomes)/(g liver)•(g liver)/(kg body weight) [formula] CL(liver) = (CLint(liver)×fu×Qh)/(CLint(liver)×fu+Qh) [formula] fu (unbound fraction in blood) was defaulted to be 1.
# SOS1 = molecular target: T1, SOS1 (Homo sapiens, UniProt Q07889); experiment: biochemical
# T1 sequence (Q07889 1-1333): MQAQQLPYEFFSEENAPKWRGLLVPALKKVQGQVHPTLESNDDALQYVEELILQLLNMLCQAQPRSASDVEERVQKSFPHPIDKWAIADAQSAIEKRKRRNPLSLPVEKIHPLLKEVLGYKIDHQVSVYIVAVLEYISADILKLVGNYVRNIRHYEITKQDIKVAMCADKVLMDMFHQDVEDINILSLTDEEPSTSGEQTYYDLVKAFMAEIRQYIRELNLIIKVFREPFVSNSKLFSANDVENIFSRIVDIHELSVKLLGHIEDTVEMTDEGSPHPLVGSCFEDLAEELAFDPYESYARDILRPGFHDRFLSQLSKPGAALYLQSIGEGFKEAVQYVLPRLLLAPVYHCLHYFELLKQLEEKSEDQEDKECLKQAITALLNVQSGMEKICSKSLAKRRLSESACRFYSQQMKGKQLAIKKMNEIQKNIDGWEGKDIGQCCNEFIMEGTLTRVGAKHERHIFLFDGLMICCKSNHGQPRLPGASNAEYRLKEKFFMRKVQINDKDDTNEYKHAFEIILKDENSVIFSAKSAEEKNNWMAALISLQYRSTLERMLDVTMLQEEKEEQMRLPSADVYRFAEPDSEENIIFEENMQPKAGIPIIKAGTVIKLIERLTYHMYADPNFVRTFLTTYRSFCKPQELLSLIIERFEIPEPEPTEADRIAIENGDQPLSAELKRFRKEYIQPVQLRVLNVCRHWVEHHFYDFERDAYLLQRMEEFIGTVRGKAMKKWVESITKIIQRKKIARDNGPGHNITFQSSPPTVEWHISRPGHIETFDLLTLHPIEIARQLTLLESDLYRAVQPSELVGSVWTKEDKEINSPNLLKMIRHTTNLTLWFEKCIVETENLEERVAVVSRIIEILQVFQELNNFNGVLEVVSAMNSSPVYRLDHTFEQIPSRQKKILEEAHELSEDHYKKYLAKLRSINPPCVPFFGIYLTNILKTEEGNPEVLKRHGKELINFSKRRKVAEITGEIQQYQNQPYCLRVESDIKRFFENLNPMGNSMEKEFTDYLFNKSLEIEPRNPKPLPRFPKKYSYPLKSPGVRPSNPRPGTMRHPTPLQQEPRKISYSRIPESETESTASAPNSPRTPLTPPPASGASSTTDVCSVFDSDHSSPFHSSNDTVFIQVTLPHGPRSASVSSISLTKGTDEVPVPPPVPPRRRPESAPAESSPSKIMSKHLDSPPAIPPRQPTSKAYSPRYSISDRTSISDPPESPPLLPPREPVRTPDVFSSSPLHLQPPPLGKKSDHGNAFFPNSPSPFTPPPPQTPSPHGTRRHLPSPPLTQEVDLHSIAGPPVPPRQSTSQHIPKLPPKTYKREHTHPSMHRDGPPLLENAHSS
SMILES,IC50 [1] [nM],half-life at 1 µM [2] [h],CLint scaled at 1 µM [2] [mL/min/kg],IC50 (SOS1) [nM]
"C[C@@H](Nc1nnc(N2CCN(C3CCC3)CC2)c2cc(=O)n(C3(C)CC3)cc12)c1cccc(C(F)F)c1F [Example 220, (R)-1-(4-cyclobutylpiperazin-1-yl)-4-((1-(3-(difluoromethyl)-2-fluorophenyl)ethyl)amino)-6-(1-methylcyclopropyl) pyrido[3,4-d]pyridazin-7(6H)-one]",56.7,1.34,19.9,4
"Cc1c([C@@H](C)Nc2nnc(N3CCN(C(C)C)CC3)c3cc(=O)n(C4(C)CC4)cc23)cccc1C(F)(F)F [Example 91, (R)-1-(4-isopropylpiperazin-1-yl)-4-((1-(2-methyl-3-(trifluoromethyl)phenyl)ethyl)amino)-6-(1-methylcyclopropyl) pyrido[3,4-d]pyridazin-7(6H)-one]",38.5,2.52,12.7,5.7
"C[C@@H](Nc1nnc(N2CCN(C)CC2)c2cc(=O)n(C3CC(F)(F)C3)cc12)c1cccc(C(F)F)c1F [Example 90, (R)-6-(3,3-difluorocyclobutyl)-4-((1-(3-(difluoromethyl)-2-fluorophenyl)ethyl)amino)-1-(4-methylpiperazin-1-yl)pyrido[3,4-d]pyridazin-7(6H)-one]",49.8,2.32,13.5,4.2
"C[C@@H](Nc1nnc(N2CCN(C(C)(C)C)CC2)c2cc(=O)n(C3CC(F)(F)C3)cc12)c1cccc(C(F)F)c1F [Example 108, (R)-6-(3,3-difluorocyclobutyl)-4-((1-(3-(difluoromethyl)-2-fluorophenyl)ethyl)amino)-1-(4-(tert-butyl)piperazin-1-yl)pyrido[3,4-d]pyridazin-7(6H)-one]",27,2.23,13.9,5.5
"CC(C)N1CCN(c2nnc(N[C@H](C)c3cccc(C(F)F)c3F)c3cn(C4CCC4)c(=O)cc23)CC1 [Example 113, (R)-6-cyclobutyl-4-((1-(3-(difluoromethyl)-2-fluorophenyl)ethyl)amino)-1-(4-isopropylpiperazin-1-yl)pyrido[3,4-d]pyridazin-7(6H)-one]",24.2,2.25,13.9,4.5
"CCN1CCN(c2nnc(N[C@H](C)c3cccc(C(F)(F)F)c3C)c3cn(C4(C)CC4)c(=O)cc23)CC1 [Example 104, (R)-1-(4-ethylpiperazin-1-yl)-4-((1-(2-methyl-3-(trifluoromethyl)phenyl)ethyl)amino)-6-(1-methylcyclopropyl) pyrido[3,4-d]pyridazin-7(6H)-one]",29.7,2.6,12.4,7.5
"C[C@@H](Nc1nnc(N2CCN(CC3CC3)CC2)c2cc(=O)n(C3(C)CC3)cc12)c1cccc(C(F)F)c1F [Example 219, (R)-1-(4-(cyclopropylmethyl)piperazin-1-yl)-4-((1-(3-(difluoromethyl)-2-fluorophenyl)ethyl)amino)-6-(1-methylcyclopropyl) pyrido[3,4-d]pyridazin-7(6H)-one]",25,2.8,11.7,4.7
"CCNc1nnc(N[C@H](C)c2cccc(C(F)(F)F)c2C)c2cn(C3(C)CC3)c(=O)cc12 [Example 97, (R)-1-(ethylamino)-4-((1-(2-methyl-3-(trifluoromethyl)phenyl)ethyl)amino)-6-(1-methylcyclopropyl) pyrido[3,4-d]pyridazin-7(6H)-one]",36.8,1.75,16.7,5.1
"CCN1CCN(c2nnc(N[C@H](C)c3cccc(C(F)(F)F)c3F)c3cn(C4(C)CC4)c(=O)cc23)CC1 [Example 168, (R)-1-(4-ethylpiperazin-1-yl)-4-((1-(2-fluoro-3-(trifluoromethyl)phenyl)ethyl)amino)-6-(1-methylcyclopropyl) pyrido[3,4-d]pyridazin-7(6H)-one formate]",35.5,,,4.1
"C[C@@H](Nc1nnc(N2CCN(C3CCCC3)CC2)c2cc(=O)n(C3(C)CC3)cc12)c1cccc(C(F)F)c1F [Example 221, (R)-1-(4-cyclopentylpiperazin-1-yl)-4-((1-(3-(difluoromethyl)-2-fluorophenyl)ethyl)amino)-6-(1-methylcyclopropyl) pyrido[3,4-d]pyridazin-7(6H)-one]",53.6,1.12,22.2,5
"C[C@@H]1CN(c2nnc(N[C@H](C)c3cccc(C(F)(F)F)c3)c3cn(C4(C)CC4)c(=O)cc23)CCN1C [Example 176, 1-((R)-3,4-dimethylpiperazin-1-yl)-6-(1-methylcyclopropyl)-4-(((R)-1-(3-(trifluoromethyl)phenyl)ethyl)amino)pyr ido[3,4-d]pyridazin-7(6H)-one formate]",32.3,,,6
